# Measured values published in patent publication US20200071310A1, “N-ARYL PYRAZOLES AS NRF2 REGULATORS” (GLAXOSMITHKLINE INTELLECTUAL PROPERTY DEVELOPMENT LIMITED, priority 2016, published 2020).
# pEC50: −log10 of the molar value.
# Biological target: T1, full length Keap1 protein / full length NRF2 protein (Homo sapiens, UniProt Q14145)
# T1 construct: full length NRF2 protein and full length Keap1 protein (Keap1 exists a dimer) are used; His
# Experiment: NRF2-Keap1 TR-FRET Low Protein Assay
# Type: binding
# Excerpt: In the NRF2-Keap1 TR-FRET (time-resolved fluorescence resonance energy transfer) low protein assay, full length NRF2 protein and full length Keap1 protein (Keap1 exists a dimer) are used. The assay detects a compound's ability to displace the binding of Keap1 FlagHis with biotinylated Avi-NRF2 protein. Biotin-NRF2 binds to streptavidin-europium (a component of the detection mix) and Keap1 FlagHis is recognized by anti-Flag APC (allophycocyanin) antibody (also a component of the detection mix). If binding occurs between the two proteins, there will be an energy transfer from the Eu+3 (donor) at 615 nm to the APC (acceptor) at 665 nm. A potential NRF2 inhibitor will cause a reduction in the TR-FRET signal by interfering with the binding of Keap1 to NRF2.
# Ten nanoliters of 100× compound dose response curves (serial 3-fold dilutions) in DMSO were stamped using an Echo liquid handling system (Labcyte) into 384-well, low volume, black assay plates (Greiner, #784076), with DMSO in columns 6 and 18. An additional 90 nl DMSO was added to each well, to bring the total volume to 100 nl per well. The top concentration of compound was located in columns 1 and 13, with the serial dilutions going across the row. All reagents were diluted in assay buffer (50 mM Tris, pH 8.0, 5 mM MgCl2, 100 mM NaCl, 0.005% BSA, 1 mM DTT, and 2 mM CHAPS. The BSA, DTT, and CHAPS were added to the assay buffer on the day of assay. Using a Multidrop Combi (Thermo Electron Corporation) equipped with a metal tip dispenser, 5 ul of 1.25 nM Keap1 FlagHis protein was added to all wells of the compound plate, with the exception of the wells in column 18. Wells in column 18 received 5 ul of assay buffer instead. Plates were centrifuged at 500 rpm for 1 minute, covered with a plate lid, and incubated at 37° C. for 2.25 hours. Plates were then removed from the incubator and allowed to cool to RT for 15 minutes. Five microliters of 2.5 nM biotin-NRF2 protein was then added to all wells of the plates and the plates were spun at 500 rpm for 1 minute, followed by incubating at 4° C. for 1.25 hours. The plates were then allowed to warm to RT for 15 minutes, followed by the addition of 10 ul of detection mix (1 nM Streptavidin Eu+W1024 and 5 ug/ml mouse anti-DYKDDDDK IgG conjugated to SureLight APC antibody; both from Columbia Biosciences) to all wells. Plates were spun at 500 rpm for 1 minute, incubated for 1 hour at RT, and read on an Envision plate reader using a 320 nm excitation filter and 615 nm and 665 nm emission filters. Compound response (% inhibition) and potency (pIC50) were calculated based on the ratio of the two emissions (665 nm/615 nm) and then the transformed data was normalized against controls in the assay (control 1=1% DMSO in the presence of NRF2 and Keap1 protein and control 2=1% DMSO in the presence of only the NRF2 protein). Data analysis was handled using the software package Abase XE (Surrey, United Kingdom). The % inhibition values were calculated from the ratio (transformed) data by the equation:
# 100−(100*(compound response−average control 2)/(average control 1−average control2)).
# For calculation of pIC50s, Abase XE used a four parameter equation.
# IC50s<10 nM (+++++), IC50s 10-100 nM (++++), IC50s 100 nM-1 uM (+++), IC50s 1-10 uM (++). and IC50s 10 uM-100 uM (+), IC50s>100 uM (−), or were not determined (ND).
# T1 sequence (Q14145 whole entry): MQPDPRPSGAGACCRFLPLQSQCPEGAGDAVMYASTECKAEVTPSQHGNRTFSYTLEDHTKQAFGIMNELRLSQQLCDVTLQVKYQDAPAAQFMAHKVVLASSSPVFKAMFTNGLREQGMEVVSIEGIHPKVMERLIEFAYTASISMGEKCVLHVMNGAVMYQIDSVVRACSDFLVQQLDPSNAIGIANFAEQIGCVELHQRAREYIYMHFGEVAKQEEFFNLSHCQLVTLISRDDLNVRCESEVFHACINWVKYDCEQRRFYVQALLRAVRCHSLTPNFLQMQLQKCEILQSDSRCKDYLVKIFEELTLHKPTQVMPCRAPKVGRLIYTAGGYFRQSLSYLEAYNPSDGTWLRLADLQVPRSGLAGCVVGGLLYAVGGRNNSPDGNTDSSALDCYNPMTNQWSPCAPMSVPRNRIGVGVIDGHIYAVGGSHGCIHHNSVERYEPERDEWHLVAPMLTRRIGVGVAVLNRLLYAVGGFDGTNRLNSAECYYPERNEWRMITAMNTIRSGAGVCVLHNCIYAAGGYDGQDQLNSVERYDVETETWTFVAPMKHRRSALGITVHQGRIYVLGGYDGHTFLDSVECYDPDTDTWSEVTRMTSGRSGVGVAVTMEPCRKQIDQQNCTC
row,pEC50,Structure (SMILES)
1,7.00 to 8.00,Cn1cc([C@@H]2C[C@H]2c2c(C(=O)O)cnn2-c2cccc(CN3CC(C)(C)Oc4ccc(F)cc4S3(=O)=O)c2)nn1 (racemic) [Example 5]
2,6.00 to 7.00,Cn1cc([C@@H]2C[C@H]2c2c(C(=O)O)cnn2-c2cccc(CN3Cc4ccccc4CC(C)(C)C3)c2)nn1 (racemic) [Example 7]
3,6.00 to 7.00,Cn1cc([C@@H]2C[C@H]2c2c(C(=O)O)cnn2-c2cccc(CN3Cc4ccccc4OC(C)(C)C3)c2)nn1 (racemic) [Example 8]
4,6.00 to 7.00,Cn1cc([C@@H]2C[C@H]2c2c(C(=O)O)cnn2-c2cccc(CN3Cc4ncccc4OC(C)(C)C3)c2)nn1 (racemic) [Example 9]
5,7.00 to 8.00,Cn1cc([C@@H]2C[C@H]2c2c(C(=O)O)cnn2-c2cccc(CN3Cc4cc(Br)ccc4OC(C)(C)C3)c2)nn1 (racemic) [Example 13]
6,7.00 to 8.00,"C[C@H]1Cc2ccc(C(F)(F)F)cc2S(=O)(=O)N(Cc2cccc(-n3ncc(C(=O)O)c3[C@@H]3C[C@H]3c3cn(C)nn3)c2)C1 (racemic) [Example 16, 1-(3-((4-methyl-1,1-dioxido-8-(trifluoromethyl)-4,5-dihydro-benzo[f][1,2]thiazepin-2(3H)-yl)methyl)phenyl)-5-((trans)-2-(1-methyl-1H-1,2,3-triazol-4-yl)cyclopropyl)-1H-pyrazole-4-carboxylic acid]"
7,7.00 to 8.00,"C[C@H]1Cc2ccc(Br)cc2S(=O)(=O)N(Cc2cccc(-n3ncc(C(=O)O)c3[C@@H]3C[C@H]3c3cn(C)nn3)c2)C1 (racemic) [Example 17, 1-(3-((8-bromo-4-methyl-1,1-dioxido-4,5-dihydrobenzo[f][1,2]thiazepin-2(3H)-yl)methyl)phenyl)-5-((trans)-2-(1-methyl-1H-1,2,3-triazol-4-yl)cyclopropyl)-1H-pyrazole-4-carboxylic acid]"
8,7.00 to 8.00,"C[C@@H]1Cc2cc(C(F)(F)F)ccc2S(=O)(=O)N(Cc2cccc(-n3ncc(C(=O)O)c3[C@@H]3C[C@H]3c3cn(C)nn3)c2)C1 (racemic) [Example 18, 1-(3-((4-methyl-1,1-dioxido-7-(trifluoromethyl)-4,5-dihydro-benzo[f][1,2]thiazepin-2(3H)-yl)methyl)phenyl)-5-((trans)-2-(1-methyl-1H-1,2,3-triazol-4-yl)cyclopropyl)-1H-pyrazole-4-carboxylic acid]"
9,5.00 to 6.00,"C[C@H]1Cc2cc(C(F)(F)F)ccc2S(=O)(=O)N(Cc2cccc(-n3ncc(C(=O)O)c3[C@@H]3C[C@H]3c3cn(C)nn3)c2)C1 (racemic) [Example 19, 1-(3-((4-methyl-1,1-dioxido-7-(trifluoromethyl)-4,5-dihydro-benzo[f][1,2]thiazepin-2(3H)-yl)methyl)phenyl)-5-((trans)-2-(1-methyl-1H-1,2,3-triazol-4-yl)cyclopropyl)-1H-pyrazole-4-carboxylic acid]"
10,7.00 to 8.00,Cn1cc([C@@H]2C[C@H]2c2c(C(=O)O)cnn2-c2cccc(Cn3ccnc3CC3CCCCCC3)c2)nn1 (racemic) [Example 23]
11,6.00 to 7.00,Cn1cc([C@@H]2C[C@H]2c2c(C(=O)O)cnn2-c2cccc(Cn3ccnc3CN3CCCCC3)c2)nn1 (racemic) [Example 24]
12,7.00 to 8.00,"CCCCCCN(Cc1cccc(-n2ncc(C(=O)O)c2[C@@H]2C[C@H]2c2cn(C)nn2)c1)S(=O)(=O)c1cccc(-c2ccccc2)c1 (racemic) [Example 34, 1-(3-((N-hexyl-[1,1′-biphenyl]-3-ylsulfonamido)methyl)phenyl)-5-((trans)-2-(1-methyl-1H-1,2,3-triazol-4-yl)cyclopropyl)-1H-pyrazole-4-carboxylic acid]"
13,6.00 to 7.00,"CN(Cc1cccc(-n2ncc(C(=O)O)c2[C@@H]2C[C@H]2c2cn(C)nn2)c1)S(=O)(=O)c1cccc(Oc2ccccc2)c1 (racemic) [Example 35, 5-((trans)-2-(1-methyl-1H-1,2,3-triazol-4-yl)cyclo-propyl)-1-(3-((N-methyl-3-phenoxy-phenyl-sulfonamido)-methyl)phenyl)-1H-pyrazole-4-carboxylic acid]"

row,Structure (SMILES),pEC50
1,CC[C@@H]1CN(Cc2cccc(-n3ncc(C(=O)O)c3[C@@H]3C[C@H]3c3cn(C)nn3)c2)Cc2ccccc2O1 (racemic) [Example 14],5.00 to 6.00
